Source: article PMC4306533, “Distinct Features of Cap Binding by eIF4E1b Proteins” (Journal of Molecular Biology, 2015)
Read-outs that look alike come from different tables or passages of the source.

Assays:
[1] = biological target: T1, X4E1a4 (E101S/K102R/S195A/M82S) (Xenopus laevis, UniProt P48597, E101S/K102R/M82S/S195A); assay: fluorescence titration, XeIF4E1a mutant; assay type: binding; conditions: mutant (E101S/K102R/S195A/M82S) of XeIF4E1a
T1 construct: made in house; host or cells: E. coli Rosetta2(DE3)
Source text: (§1) We tested the effect on cap-binding activity of these positions in the fluorescence assay with six mutated recombinant versions of Xenopus eIF4E1a (Fig. S4). The amino acids were introduced in XeIF4E1a sequentially in the order: E101S/K102R/S195A/M82S/T206L/T207S (numbering of the XeIF4E1a sequence is shifted backward by 4 amino acids relative to XeIF4E1b). […] The biggest contribution to the weaker cap binding of XeIF4E1a, in each case about 20%, resulted from changing Glu101 to Ser and Thr206 to Leu coupled with Thr207 to Ser, with the remaining mutations having only minor effects. […] Glu101 is a solvent-accessible amino acid and is proximal to Trp98 in the S3-S4 loop. […] Attenuation of the cap-binding affinity of XeIF4E1a resulting from mutating Thr206 and Thr207 is consistent with our results mentioned above showing significant influence of C-terminal loop residues on binding phosphate and the second nucleotide.
(§2) For human eIF4E1a and eIF4E1b and also for Xenopus eIF4E1a and its mutated forms, measurements were carried out using 0.1 μM protein in 50 mM Hepes/KOH (pH 7.2), 134.5 mM KCl, 0.5 mM EDTA and 1 mM DTT. For Xenopus eIF4E1b(ΔN27), the concentration was 0.2 μM and glycerol was added to the buffer to 10% (v/v) final concentration. […] The gradually increasing concentration of cap analogue quenches protein fluorescence without shifting the spectrum maximum, while at high concentrations, the fluorescence signal of free cap analogue dominates over the fluorescence from other solution components including free eIF4E and eIF4E in complex with cap (Fig. S2a). Fluorescence of measured samples was excited at 280 nm (2.5 nm bandwidth) and detected at 337 nm or 330 nm (4 nm bandwidth), thus reducing the signal originated from the free cap analogues. Measurements were carried out on a LS-55 spectrofluorometer (Perkin Elmer Co.) using freshly prepared proteins, and the fluorescence intensities were corrected for sample dilution and the inner filter effect.
(§3) Equilibrium association constants (Kas) were determined by fitting the theoretical dependence of fluorescence intensity on the total concentration of the cap analogue to the experimental data points, according to the equation described previously (see Ref. [22] and Fig. S2c). […] Along with Kas and the concentration of the active protein [P0^act], other parameters such as fL and ∆f = fPact − fPL are also gained from the fit, where fL represents the fluorescence efficiency of free cap analogue and ∆f represents the difference between the fluorescence efficiencies of the apo-protein and the complex (Fig. S2c).
(§4) The final Kas was calculated as a weighted average of 2–6 independent titrations with the weights taken as the reciprocal of the numerical standard deviation squared. Numerical, nonlinear least-squares regression analysis was performed using Origin 6.0 (Microcal Software Inc.). Obtained association constants were used to determine the Gibbs free energy according to the standard equation ΔG° = − RTlnKas.

[2] = biological target: T2, X4E1a6 (E101S/K102R/S195A/M82S/T206L/T207S) (Xenopus laevis, UniProt P48597, E101S/K102R/M82S/S195A/T206L/T207S); assay: fluorescence titration, XeIF4E1a mutant; assay type: binding; conditions: for Kas X4E1a6: mutant (E101S/K102R/S195A/M82S/T206L/T207S) of XeIF4E1a
T2 construct: made in house; host or cells: E. coli Rosetta2(DE3)
Source text: as §1, §2, §3, §4

[3] = biological target: T3, X4E1a3 (E101S/K102R/S195A) (Xenopus laevis, UniProt P48597, E101S/K102R/S195A); assay: fluorescence titration, XeIF4E1a mutant; assay type: binding; conditions: mutant (E101S/K102R/S195A) of XeIF4E1a
T3 construct: made in house; host or cells: E. coli Rosetta2(DE3)
Source text: as §1, §2, §3, §4

heIF4E1b [4] = assay: time-synchronized fluorescence titration of cap analogue binding; design: species or system human; conditions: without glycerol
Source text: (§5) The time-synchronized fluorescence titration method, widely used to determine the affinity constants of cap–eIF4E complexes [[20,22–26]], measures the quenching of the intrinsic fluorescence of tryptophan residues due to cap binding (Fig. S2). Knowledge of the equilibrium association constant Kas enables the calculation of the free-energy changes involved in the interaction between eIF4E and ligand, according to the standard equation ΔG° = − RTlnKas.
(§6) For human eIF4E1a and eIF4E1b and also for Xenopus eIF4E1a and its mutated forms, measurements were carried out using 0.1 μM protein in 50 mM Hepes/KOH (pH 7.2), 134.5 mM KCl, 0.5 mM EDTA and 1 mM DTT. For Xenopus eIF4E1b(ΔN27), the concentration was 0.2 μM and glycerol was added to the buffer to 10% (v/v) final concentration. […] Fluorescence of measured samples was excited at 280 nm (2.5 nm bandwidth) and detected at 337 nm or 330 nm (4 nm bandwidth), thus reducing the signal originated from the free cap analogues. Measurements were carried out on a LS-55 spectrofluorometer (Perkin Elmer Co.) using freshly prepared proteins, and the fluorescence intensities were corrected for sample dilution and the inner filter effect.
(§7) Equilibrium association constants (Kas) were determined by fitting the theoretical dependence of fluorescence intensity on the total concentration of the cap analogue to the experimental data points, according to the equation described previously (see Ref. [22] and Fig. S2c).
as §4

XeIF4E1a [5] = biological target: T4, XeIF4E1a (Xenopus laevis, UniProt P48597); assay: as above; conditions: for ΔΔG^o − glycerol XeIF4E1a: without glycerol; for Kas + glycerol XeIF4E1a / Kas − glycerol XeIF4E1a: equilibrium association constant; for Kas − glycerol XeIF4E1a: buffer without glycerol
T4 construct: made in house; host or cells: E. coli Rosetta2(DE3)
Source text: as §5, §6, §7, §4

XeIF4E1a [6] = assay: as above; design: species or system Xenopus laevis; conditions: without glycerol
Source text: as §5, §6, §7, §4

heIF4E1a [7] = biological target: T5, heIF4E1a (Homo sapiens, UniProt P06730); assay: as above; conditions: for ΔΔG^o − glycerol heIF4E1a: without glycerol
T5 construct: made in house; host or cells: E. coli Rosetta2(DE3)
Source text: as §5, §6, §7, §4

heIF4E1b [8] = biological target: T6, heIF4E1b (Homo sapiens, UniProt A6NMX2); assay: as above; conditions: for Kas − glycerol heIF4E1b: equilibrium association constant, buffer without glycerol
T6 construct: made in house; host or cells: E. coli Rosetta2(DE3)
T6 sequence (A6NMX2 1-242): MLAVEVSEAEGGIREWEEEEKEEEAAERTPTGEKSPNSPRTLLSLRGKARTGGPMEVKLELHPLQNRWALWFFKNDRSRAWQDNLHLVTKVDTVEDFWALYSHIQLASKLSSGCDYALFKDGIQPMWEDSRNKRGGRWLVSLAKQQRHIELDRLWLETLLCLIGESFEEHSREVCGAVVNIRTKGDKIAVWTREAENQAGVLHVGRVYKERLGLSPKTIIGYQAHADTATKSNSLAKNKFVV
Source text: as §5, §6, §7, §4

XeIF4E1bΔN27 = assay: as above; design: species or system Xenopus laevis; conditions: for Kas + glycerol XeIF4E1bΔN27: equilibrium association constant
Source text: as §5, §6, §7, §4

heIF4E1a [9] = biological target: T5, heIF4E1a; design: method as in PMID 17369309; conditions: equilibrium association constant; buffer without glycerol; footnote b; cited from earlier work
X4E1a2 (E101S/K102R) = biological target: T7, X4E1a2 (E101S/K102R) (Xenopus laevis, UniProt P48597, E101S/K102R); assay: fluorescence titration, XeIF4E1a mutant; assay type: binding; conditions: mutant (E101S/K102R) of XeIF4E1a
T7 construct: made in house; host or cells: E. coli Rosetta2(DE3)
Source text: as §1, §2, §3, §4

X4E1a1 (E101S) = biological target: T8, X4E1a1 (E101S) (Xenopus laevis, UniProt P48597, E101S); assay: fluorescence titration, XeIF4E1a mutant; assay type: binding; conditions: mutant (E101S) of XeIF4E1a
T8 construct: made in house; host or cells: E. coli Rosetta2(DE3)
Source text: as §1, §2, §3, §4

X4E1a1’ (K102R) = biological target: T9, X4E1a1’ (K102R) (Xenopus laevis, UniProt P48597, K102R); assay: fluorescence titration, XeIF4E1a mutant; assay type: binding; conditions: mutant (K102R) of XeIF4E1a
T9 construct: made in house; host or cells: E. coli Rosetta2(DE3)
Source text: as §1, §2, §3, §4

in vitro translation = test system: in vitro translation; design: method as in PMID 10387101; conditions: Cai et al.; read-out: IC50 (inhibitory potency); cited from earlier work
[10] = change relative to m^7GTP, 10% glycerol

T5 sequence (P06730 whole entry): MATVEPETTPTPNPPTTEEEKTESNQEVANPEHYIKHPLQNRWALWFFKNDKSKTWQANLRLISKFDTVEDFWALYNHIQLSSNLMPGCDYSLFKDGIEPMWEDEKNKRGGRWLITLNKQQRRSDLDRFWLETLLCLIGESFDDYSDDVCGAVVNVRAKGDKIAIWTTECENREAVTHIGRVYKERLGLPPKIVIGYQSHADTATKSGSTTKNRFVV
T2 sequence (P48597 whole entry M82S/E101S/K102R/S195A/T206L/T207S): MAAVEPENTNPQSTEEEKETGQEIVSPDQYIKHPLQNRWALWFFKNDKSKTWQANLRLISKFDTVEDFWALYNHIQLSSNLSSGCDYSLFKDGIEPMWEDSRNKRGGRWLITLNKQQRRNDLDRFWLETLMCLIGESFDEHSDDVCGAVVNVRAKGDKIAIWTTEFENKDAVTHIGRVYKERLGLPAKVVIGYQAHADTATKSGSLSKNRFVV
T4 sequence (P48597 whole entry): as the sequence (P48597 whole entry M82S/E101S/K102R/S195A/T206L/T207S) above, with S82M, S101E, R102K, A195S, L206T, S207T counted along it
T3 sequence (P48597 whole entry E101S/K102R/S195A): as the sequence (P48597 whole entry M82S/E101S/K102R/S195A/T206L/T207S) above, with S82M, L206T, S207T counted along it
T1 sequence (P48597 whole entry M82S/E101S/K102R/S195A): as the sequence (P48597 whole entry M82S/E101S/K102R/S195A/T206L/T207S) above, with L206T, S207T counted along it
T8 sequence (P48597 whole entry E101S): as the sequence (P48597 whole entry M82S/E101S/K102R/S195A/T206L/T207S) above, with S82M, R102K, A195S, L206T, S207T counted along it
T7 sequence (P48597 whole entry E101S/K102R): as the sequence (P48597 whole entry M82S/E101S/K102R/S195A/T206L/T207S) above, with S82M, A195S, L206T, S207T counted along it
T9 sequence (P48597 whole entry K102R): as the sequence (P48597 whole entry M82S/E101S/K102R/S195A/T206L/T207S) above, with S82M, S101E, A195S, L206T, S207T counted along it

| Kas X4E1a4 [1] | Kas X4E1a6 [2] | Kas X4E1a3 [3] | Ratio Kas (h4E1a) to Kas (h4E1b) (heIF4E1b [4]) | Kas + glycerol XeIF4E1a (XeIF4E1a [5]; 10% glycerol) | Kas − glycerol XeIF4E1a (XeIF4E1a [5]) | Ratio Kas (h4E1a) to Kas (X4E1a) (XeIF4E1a [6]) | Kas − glycerol heIF4E1b (heIF4E1b [8]) | Ratio Kas (X4E1a) to Kas (X4E1bΔN27) (XeIF4E1bΔN27; 10% glycerol) | Kas + glycerol XeIF4E1bΔN27 (XeIF4E1bΔN27; 10% glycerol) | Compound | also measured |
| --- | --- | --- | --- | --- | --- | --- | --- | --- | --- | --- | --- |
| 1.48 ± 0.11 µM⁻¹ | 1.33 ± 0.11 µM⁻¹ | 1.57 ± 0.21 µM⁻¹ | 1.84 | 1.22 ± 0.053 μM^− 1 | 2.015 ± 0.028 μM^− 1 | 1.97 | 2.158 ± 0.053 μM^− 1 | 1.99 | 0.615 ± 0.042 μM^− 1 | Cn1c[n+]([C@@H]2O[C@H](COP(=O)(O)OP(=O)(O)OP(=O)(O)OC[C@H]3O[C@@H](n4cnc5c(N)ncnc54)[C@H](O)[C@@H]3O)[C@@H](O)[C@H]2O)c2nc(N)[nH]c(=O)c21 [m^7GpppA] | ΔΔG^o + glycerol XeIF4E1a (XeIF4E1a [5]; [10]): 1.717 ± 0.033 kcal/mol; ΔΔG^o − glycerol XeIF4E1a (XeIF4E1a [5]; change relative to m^7GTP): 1.779 ± 0.029 kcal/mol; ΔΔG^o − glycerol heIF4E1a (heIF4E1a [7]; change relative to m^7GTP): 1.658 ± 0.053 kcal/mol; ΔΔG^o − glycerol heIF4E1b (heIF4E1b [8]; change relative to m^7GTP, without glycerol): 1.352 ± 0.039 kcal/mol; ΔΔG^o + glycerol XeIF4E1bΔN27 (XeIF4E1bΔN27; [10]): 1.479 ± 0.050 kcal/mol; Kas − glycerol heIF4E1a (heIF4E1a [9]): 3.97 ± 0.21 ^b μM^− 1 |
| 11.66 ± 0.64 µM⁻¹ | 7.09 ± 0.18 µM⁻¹ | 9.08 ± 0.33 µM⁻¹ | 0.47 | 6.04 ± 0.92 μM^− 1 | 10.62 ± 0.98 μM^− 1 | 1.58 | 35.4 ± 1.6 μM^− 1 | 1.38 | 4.36 ± 0.18 μM^− 1 | Nc1nc2c(c(=O)[nH]1)n(Cc1ccccc1)c[n+]2[C@@H]1O[C@H](COP(=O)(O)OP(=O)(O)O)[C@@H](O)[C@H]1O [bn^7GDP] | Kas + glycerol X4E1a6 ([2]; 10% glycerol, Fig. 5d): 3.57 ± 0.24 µM⁻¹; Kas X4E1a2 (X4E1a2 (E101S/K102R)): 8.86 ± 0.16 µM⁻¹; Kas X4E1a1 (X4E1a1 (E101S)): 9.01 ± 0.21 µM⁻¹; Kas X4E1a1’ (X4E1a1’ (K102R)): 11.22 ± 0.65 µM⁻¹; ΔΔG^o − glycerol XeIF4E1a (XeIF4E1a [5]; change relative to m^7GDP): 0.042 ± 0.059 kcal/mol; ΔΔG^o − glycerol heIF4E1a (heIF4E1a [7]; change relative to m^7GDP): 0.033 ± 0.022 kcal/mol; Kas − glycerol heIF4E1a (heIF4E1a [7]; equilibrium association constant, buffer without glycerol): 16.79 ± 0.56 μM^− 1; fold increase of association constant compared with m^7GDP (heIF4E1b [8]; benzyl substitution): approximately 5 fold; fold increase of association constant compared with m^7GDP (XeIF4E1bΔN27; benzyl substitution): ~2 fold |
| – | – | – | – | – | – | – | – | – | – | Nc1nc2c(c(=O)[nH]1)n(Cc1ccc(Cl)cc1)c[n+]2[C@@H]1O[C@H](COP(=O)([O-])OP(=O)(O)O)[C@@H](O)[C@H]1O [p-Cl-bn^7GDP] | IC50 (in vitro translation): 6.76 µM |
